Results from US20250345328A1, “METHODS OF TREATING A RAS RELATED DISEASE OR DISORDER” (Revolution Medicines, Inc., priority 2023, published 2025).

Assays:
[1] = Phase 1/1b study: steady-state blood PK; assay type: in vivo, human; conditions: PO QD
Source text: FIG. 3 graphically depicts the mean steady-state blood PK profiles and individual steady-state blood AUC.
(§1) Whole-blood samples are collected from all subjects to measure Compound A concentrations, circulating tumor deoxyribonucleic acid (ctDNA) and other biomarkers. Samples for pharmacodynamic assays collected in Cycle 1 and beyond. Paired pretreatment and on treatment fresh tumor samples can optionally be collected from any subject if consent is obtained and at the discretion of the treating physician. Optional collection of pre-study treatment fresh biopsy should be performed prior to C1D1 dosing. An optional on-study treatment biopsy can be obtained with subject consent and at the discretion of the treating physician. The primary purpose of the optional on-study treatment biopsies is to assess pharmacodynamic markers and previously acquired pre-study treatment markers of resistance. Biopsy assessment with study intervention treatment over time may also help with better understanding of the shift in mutational profile with study treatment, as well as cellular clonality changes over time. Where tumor tissue allows, predictive biomarkers of response may be explored.
Compound A was administered PO QD at the following dose levels until disease progression or unacceptable toxicity: 10, 20, 40, 80, 120, 160, 220, 300, 400, and 500 mg. Progression to the next Cohort and dose level may stop if DLT is observed at a lower dose level. Other dose levels not specified but within the range listed above may also be permitted based on emergent safety and PK data.
(§2) Dose levels greater than or equal to 80 mg achieved exposures that induced tumor regressions in human xenograft models with KRAS^G12X mutations in mice (FIG. 3).

[2] = tested on: KRAS^G12X NSCLC; experiment: Phase 1/1b study: tumor response per RECIST v1.1 in NSCLC; assay type: in vivo, human
Experimental: FIG. 4 is a waterfall plot showing the best response in KRAS^G12X NSCLC.
(§3) Subjects are assessed for response using Response Evaluation Criteria in Solid Tumors (version 1.1) (RECIST [v1.1]). All subjects with previous or current, known or suspected brain metastases must have a magnetic resonance imaging (MRI) of the brain (unless contraindicated) performed within 28 days prior to the first dose of Compound A (C1D1). Disease response for clinical management of subjects is assessed per RECIST (v1.1).

[3] = tested on: KRAS^G12X PDAC; experiment: Phase 1/1b study: tumor response per RECIST v1.1 in PDAC; assay type: in vivo, human
Experimental: FIG. 5 is a waterfall plot showing the best response in KRAS^G12X PDAC.
as §3

[4] = tested on: KRAS^G12V ovarian cancer; experiment: Phase 1/1b study: tumor response in ovarian cancer case; assay type: in vivo, human; conditions: one patient; 10 mg QD, escalated to 40 mg QD at C7 and 80 mg QD at C10; at cycle 13
Experimental: as §3
person diagnosed with stage III ovarian cancer in 2004 and later with metastatic disease to the liver and peritoneum. The patient had received 2 prior therapies; Surgery; and carboplatin/paclitaxel. […] The patient was dose escalated to 40 mg QD at C7 and then to 80 mg QD at C10.

[5] = tested on: KRAS^G12X VAF in ctDNA; experiment: KRAS variant allele frequency in ctDNA (Guardant Health ctDNA test); assay type: in vivo, human
Source text: Lines inside box plots indicate median values; whiskers indicate largest or smallest value (at most±1.5× the interquartile range). Circles indicate data points >1.5 times the interquartile range; KRAS^G12X VAF at Cycle 1 Day 1 (pre-treatment) to Cycle 2 Day 1 or Cycle 3 Day 1 (on-treatment) determined by Guardant Health ctDNA test. ctDNA, circulating tumor DNA; VAF, variant allele frequency.
as §1, with “Biopsy assessment with study intervention treatment over time may also help with better understanding of the shift in mutational profile with study treatment, as well as cellular clonality changes over time. Where tumor tissue allows, predictive biomarkers of response may be explored.” left out
Patients with NSCLC and PDAC evaluated for molecular responses were dosed at 20-300 mg QD. […]

[6] = tested on: human xenograft models with KRAS^G12X mutations; experiment: Human xenograft tumor models in mice; assay type: in vivo; conditions: for Tumor regressions in xenograft models: mice
Source text: (§4) As described herein, Compound A is a potent, orally (PO) bioavailable RAS(ON) multi-selective inhibitor, selective for the active guanosine-5′-triphosphate (GTP)-bound state (RAS(ON)) of both mutant and wild-type variants of the canonical RAS isoforms (KRAS, NRAS, and HRAS) over other members of the RAS superfamily and other cellular targets. […] Binding of Compound A to CypA results in an inhibitory complex that binds RAS(ON), forming a high-affinity tri-complex that suppresses RAS signaling by disrupting interactions with effectors.
as §2

[7] = tested on: human KRAS^G12C NSCLC NCI-H2122 xenograft tumors; experiment: NCI-H2122 xenograft, Compound A plus RMC-6291 combination; assay type: in vivo; conditions: immune-deficient mice; repeated daily oral administration
Experimental: The antitumor activity of Compound A in combination with RMC-6291 was evaluated using immune-deficient mice bearing human KRAS^G12C NSCLC NCI-H2122 xenograft tumors.

[8] = tested on: multiple human cancer cell lines; experiment: Growth suppression and apoptosis in cancer cell lines in vitro; assay type: cell-based
Source text: as §4

[9] = KRAS G12X NSCLC, 80 mg QD to 400 mg QD, RECIST v1.1, FIG. 4
[10] = one patient, 80 mg QD, at cycle 5
[11] = KRAS G12X PDAC, 80 mg QD to 400 mg QD, RECIST v1.1, FIG. 5

For `CCn1c(-c2cc(N3CCN(C)CC3)cnc2[C@H](C)OC)c2c3cc(ccc31)-c1csc(n1)C[C@H](NC(=O)[C@H]1C[C@@H]1C)C(=O)N1CCC[C@H](N1)C(=O)OCC(C)(C)C2` [Compound A], the “Exposure in patients versus dose” value ([1]; blood) was “dose-dependent increases in exposure”, the “Accumulation in the blood following repeated daily dosing” value ([1]; patients) was “minimal accumulation” and the “Dose levels that achieved exposures that induced tumor regressions in human xenograft models with KRAS^G12X mutations in mice” value ([1]; patients, FIG. 3) was “greater than or equal to 80 mg”. The Disease control rate [2, 9] was 85%, the Overall response rate [2, 9] was 38% and the “Response, case report KRAS^G12D NSCLC” value [2, 10] was “confirmed partial response”. For the same compound, the “Response, case report KRAS^G12V NSCLC” value ([2]; one patient, 300 mg QD reduced to 200 mg QD due to fatigue, at week 6) was “confirmed complete response”, the “Clinical symptoms, case report KRAS^G12V NSCLC” value ([2]; one patient, 300 mg QD, within one week of start of treatment) was “clinical improvement in cough and dyspnea” and the Disease control rate [3, 11] was 87%. For the same compound, the Overall response rate [3, 11] was 20%, the “Response, case report KRAS^G12D PDAC” value [3, 10] was “confirmed partial response” and the “Response, case report KRAS^G12R PDAC” value ([3]; one patient, 160 mg QD, at week 6) was “confirmed partial response”. For the same compound, the “Response, case report KRAS^G12V ovarian cancer” value [4] was “confirmed partial response”, the “Reduction in KRAS^G12V VAF” value ([5]; one patient with KRAS^G12V ovarian cancer, 10 mg QD, at C2D1) was 60% and the “Molecular response in ctDNA” value ([5]; patients with NSCLC and PDAC dosed at 20-300 mg QD, FIG. 6) was “reduction in ctDNA of the KRAS-mutated allele”. The “Tumor regressions in xenograft models” value ([6]; 10 mg/kg QD) was “induces tumor regressions in sensitive models”, the “Tumor regressions in xenograft models” value ([6]; 25 mg/kg QD) was “induces tumor regressions in the majority of models” and the “Anti-tumor activity in vivo” value ([6]; human xenograft tumor models, particularly KRAS^G12X) was “significant anti-tumor activity”. The Mean tumor regression [7] was “mean tumor regressions were not achieved” and the “Effect on cancer cell lines in vitro” value [8] was “growth suppression and apoptosis”.
